Assay results taken from patent US9174991B2, “Crystalline form of pemetrexed disodium” (Azad Pharmaceutical Ingredients AG, priority 2009, dated 2015).
Counter-ions that a name gives are not always drawn. Like-named read-outs stand apart in the source and are kept apart here.

Assays:
[1] = starting material, before storage
Protocol: HPLC analysis was done on an Agilent 1100 system equipped with DAD detector using a Zorbax SB-Phenyl column (150×4.6 mm, 3 μm). Measurements were done at 230 nm wavelengths at 25° C. using a flow of 1.0 mL/min and 8 min post-run time. As mobile phase water containing 0.03% TFA and acetonitrile containing 0.025% TFA were used, solvents were HPLC grade. Sample preparation: 10 mg sample in 25 mL water:ACN=1:1, 5 uL injection. Retention time Pemetrexed Disodium: 10.3 min.
PXRD: Routine PXRD measurements were carried out on a Bruker AXS D8Advance diffractometer equipped with CuKα source with CuKβ filter and a VANTEC detector (Ser. No.: 202964). Measurement parameters: 3° 2theta to 39.9° 2theta, step time: 2s, step size: 0.022°, T=25° C., X-ray generator: 35 kV/40 mA.

[2] = 70° C., 5 mbar; for change in HPLC-purity upon vacuum drying (in words): up to 9 d
Protocol: (§1) To investigate the stability of the different forms of Pemetrexed Disodium a stability test concerning storage at different relative humidity, storage in the presence of light and stability under drying conditions was carried out.
Four samples were stored at 70° 5 mbar in laboratory vacuum oven. IPC were taken after 2 d, 9 d
(§2) HPLC analysis was done on an Agilent 1100 system equipped with DAD detector using a Zorbax SB-Phenyl column (150×4.6 mm, 3 μm). Measurements were done at 230 nm wavelengths at 25° C. using a flow of 1.0 mL/min and 8 min post-run time. […] Sample preparation: 10 mg sample in 25 mL water:ACN=1:1, 5 uL injection.

[3] = for H2O (KFT) / HPLC-purity (10.5 min) / PXRD / HPLC-purity: dark, air
[4] = for change in HPLC purity in the presence of light (in words) / change in color in the presence of light (in words): text says after 16 d
Protocol: as §1
The samples were stored in double PE plastic bags and exposed to daylight IT=20° C. to 25° C. IPCs were taken after 15 d.
as §2

[5] = 5% to 12% relative humidity, 2 d, measured 11.7% (Form A 5.8%), 23° C.
[6] = 5% to 12% relative humidity, 5 d, measured 9.5% (Form A 5.3%), 24° C.
[7] = 5% to 12% relative humidity, 9 d, measured 9% (Form A 6%), 24° C.
[8] = 5% to 12% relative humidity, 16 d, measured 8.5% (Form A 5.8%), 24° C.
[9] = 27% to 33% relative humidity, 2 d, measured 29.8% (Form A 28%), 23° C.
[10] = 27% to 33% relative humidity, 5 d, measured 29% (Form A 27%), 24° C.
[11] = 27% to 33% relative humidity, 9 d, measured 31% (Form A 30%), 24° C.
[12] = 27% to 33% relative humidity, 16 d, measured 30.4% (Form A 28.7%), 24° C.
[13] = 39% to 50% relative humidity, 2 d, measured 41.1% (Form A 39%), 23° C.
[14] = 39% to 50% relative humidity, 5 d, measured 42.8% (Form A 38.6%), 24° C.
[15] = 39% to 50% relative humidity, 9 d, measured 48% (Form A 47%), 24° C.
[16] = 39% to 50% relative humidity, 16 d, measured 47.3% (Form A 46.4%), 24° C.
[17] = 60% to 70% relative humidity, 2 d, measured 61%, 22° C. (Form A 54%, 23° C)
[18] = 60% to 70% relative humidity, 5 d, measured 63% (Form A 57%), 24° C.
[19] = 60% to 70% relative humidity, 9 d, measured 69% (Form A 68%), 24° C.
[20] = 60% to 70% relative humidity, 16 d, measured 66.9% (Form A 67.2%), 24° C.
[21] = double PE plastic bags, daylight, 20° C. to 25° C., 15 d
[22] = daylight, listed as Pemetrexed Disodium Form A

For `Nc1nc(O)c2c(CCc3ccc(C(=O)N[C@@H](CCC(=O)O)C(=O)O)cc3)c[nH]c2n1` [2.5 hydrate, disodium N-[4-[2-(2-amino-4,7-dihydro-4-oxo-3H-pyrrolo[2,3-d]-pyrimidin-5-yl)ethyl]benzoyl]-L-glutamic acid salt], the “HPLC-purity (10.5 min)” value [1] was 99.86%, the PXRD [1] was 2.5 hydrate and the “HPLC-purity (10.5 min)” value ([2]; 2 d) was 99.88%. The PXRD ([2]; 2 d) was 2.5 hydrate, the “HPLC-purity (10.5 min)” value ([2]; 9 d) was 99.80% and the “H2O (KFT)” value ([2]; 9 d, listed as Pemetrexed Disodium 2.5 hydrate) was 7.9%. The “change in HPLC-purity upon vacuum drying (in words)” value [2] was “no significant change”, the “change in water content (in words)” value ([3]; 5% to 12% rel. humidity (for Form A and Form IV: 7% to 12%), up to 16 d, listed as Pemetrexed Disodium 2.5 hydrate) was “no significant change” and the “change in HPLC-purity (in words)” value ([3]; 5% to 12% rel. humidity (text for Form A: 7% to 12%), up to 16 d, listed as Pemetrexed Disodium 2.5 hydrate) was “no significant change”. For the same compound, the “H2O (KFT)” value [3, 5] was 8.9%, the “HPLC-purity (10.5 min)” value [3, 5] was 99.74% and the PXRD [3, 5] was 2.5 hydrate. For the same compound, the “HPLC-purity (10.5 min)” value [3, 6] was 99.82%, the PXRD [3, 6] was 2.5 hydrate and the “HPLC-purity (10.5 min)” value [3, 7] was 99.90%. The PXRD [3, 7] was 2.5 hydrate, the HPLC-purity [3, 8] was 99.80% and the PXRD [3, 8] was 2.5 hydrate. For the same compound, the “change in water content (in words)” value ([3]; 27% to 33% rel. humidity, up to 16 d, listed as Pemetrexed Disodium 2.5 hydrate) was “slight increase”, the HPLC-purity [3, 9] was 99.82% and the PXRD [3, 9] was 2.5 hydrate. It also gave an HPLC-purity [3, 10] of 99.91%, a PXRD [3, 10] of 2.5 hydrate and an HPLC-purity [3, 11] of 99.84%. The PXRD ([3]; 27% to 33% relative humidity, 9 d, measured 31% (Form A 30%), 24° C., listed as Pemetrexed Disodium 2.5 hydrate) was “traces of Pemetrexed Disodium Heptahydrate”, the HPLC-purity [3, 12] was 99.64% and the HPLC-purity [3, 13] was 99.83%. The PXRD ([3]; 39% to 50% relative humidity, 2 d, measured 41.1% (Form A 39%), 23° C., listed as Pemetrexed Disodium 2.5 hydrate) was “formation of Pemetrexed Disodium Heptahydrate”, the HPLC-purity [3, 14] was 99.62% and the PXRD [3, 14] was “Heptahydrate”. The PXRD ([3]; 39% to 50% relative humidity, 5 d, measured 42.8% (Form A 38.6%), 24° C., listed as Pemetrexed Disodium 2.5 hydrate) was “transformation seems to be complete”, the HPLC-purity [3, 15] was 99.74% and the PXRD [3, 15] was “Heptahydrate”. The HPLC-purity [3, 16] was 99.86%, the PXRD [3, 16] was “Heptahydrate” and the “change in water content (in words)” value ([3]; 40% to 50% rel. humidity, up to 16 d, listed as Pemetrexed Disodium 2.5 hydrate) was “increase”. For the same compound, the HPLC-purity [3, 17] was 99.73%, the PXRD [3, 17] was “Heptahydrate” and the PXRD ([3]; 60% to 70% relative humidity, 2 d, measured 61%, 22° C. (Form A 54%, 23° C), listed as Pemetrexed Disodium 2.5 hydrate) was “transformation to Pemetrexed Disodium Heptahydrate is complete”. For the same compound, the HPLC-purity [3, 18] was 99.86%, the PXRD [3, 18] was “Heptahydrate” and the HPLC-purity [3, 19] was 99.84%. The PXRD [3, 19] was “Heptahydrate”, the HPLC-purity [3, 20] was 99.83% and the PXRD [3, 20] was “Heptahydrate”. The “change in HPLC purity in any of the samples (in words)” value ([3]; all relative humidities tested (5% to 70%), up to 16 d) was “No significant change”, the HPLC-purity ([4]; daylight study, Start) was 99.73% and the “change in HPLC purity in the presence of light (in words)” value ([4]; daylight) was “do not show significant changes”. For the same compound, the “change in color in the presence of light (in words)” value ([4]; daylight) was “do not show significant changes” and the HPLC-purity [4, 21] was 99.74%.
For `Nc1nc(O)c2c(CCc3ccc(C(=O)N[C@@H](CCC(=O)O)C(=O)O)cc3)c[nH]c2n1` [Form A, disodium N-[4-[2-(2-amino-4,7-dihydro-4-oxo-3H-pyrrolo[2,3-d]-pyrimidin-5-yl)ethyl]benzoyl]-L-glutamic acid salt], the “HPLC-purity (10.5 min)” value [1] was 99.59%, the PXRD [1] was “Form A” and the “HPLC-purity (10.5 min)” value ([2]; 2 d) was 99.67%. The PXRD ([2]; 2 d) was “Form A”, the Aspect ([2]; 9 d) was “beige” and the “HPLC-purity (10.5 min)” value ([2]; 9 d) was 99.41%. For the same compound, the “change in HPLC-purity upon vacuum drying (in words)” value ([2]; listed as Pemetrexed Disodium Form A) was “significant decrease”, the “change in water content (in words)” value ([3]; 5% to 12% rel. humidity (for Form A and Form IV: 7% to 12%), up to 16 d, listed as Pemetrexed Disodium Form A) was “does not show a significant change” and the “change in HPLC-purity (in words)” value ([3]; 5% to 12% rel. humidity (text for Form A: 7% to 12%), up to 16 d, listed as Pemetrexed Disodium Form A) was “does not show a significant change”. The “H2O (KFT)” value [3, 5] was 3.5%, the “HPLC-purity (10.5 min)” value [3, 5] was 99.59% and the PXRD [3, 5] was “Form A”. For the same compound, the “HPLC-purity (10.5 min)” value [3, 6] was 99.33%, the PXRD [3, 6] was “Form A” and the “HPLC-purity (10.5 min)” value [3, 7] was 99.58%. The PXRD [3, 7] was “Form A”, the HPLC-purity [3, 8] was 99.50% and the PXRD [3, 8] was “Form A”. The “change in HPLC-purity (in words)” value ([3]; 27% to 33% rel. humidity, after 16 d) was “without visible change”, the “change in water content (in words)” value ([3]; 27% to 33% rel. humidity, up to 16 d, listed as Pemetrexed Disodium Form A) was “significant in increase” and the HPLC-purity [3, 9] was 99.60%. For the same compound, the HPLC-purity [3, 10] was 99.43%, the PXRD [3, 10] was “Form A” and the HPLC-purity [3, 11] was 99.57%. For the same compound, the PXRD [3, 11] was “Form A”, the HPLC-purity [3, 12] was 99.69% and the PXRD [3, 12] was “Form A”. For the same compound, the HPLC-purity [3, 13] was 99.68%, the PXRD [3, 13] was “Form A” and the HPLC-purity [3, 14] was 99.64%. The PXRD [3, 14] was “Form A”, the HPLC-purity [3, 15] was 99.62% and the PXRD [3, 15] was “Form A”. The HPLC-purity [3, 16] was 99.70%, the PXRD [3, 16] was “Form A” and the “change in HPLC-purity (in words)” value ([3]; 40% to 50% rel. humidity, after 16 d) was “without visible change”. For the same compound, the “change in water content (in words)” value ([3]; 40% to 50% rel. humidity, up to 16 d, listed as Pemetrexed Disodium Form A) was “significant in increase”, the uptake of water ([3]; 60% to 70% rel. humidity) was 21% and the “change in HPLC-purity (in words)” value ([3]; 60% to 70% rel. humidity, after 9 d) was “without significant change”. The HPLC-purity [3, 17] was 99.71%, the PXRD [3, 17] was “Form A” and the HPLC-purity [3, 18] was 99.51%. For the same compound, the PXRD [3, 18] was “Form A”, the HPLC-purity [3, 19] was 99.71% and the PXRD [3, 19] was “Heptahydrate”. For the same compound, the PXRD ([3]; 60% to 70% relative humidity, 9 d, measured 69% (Form A 68%), 24° C., listed as Pemetrexed Disodium Form A) was “complete transformation to Pemetrexed Disodium Heptahydrate”, the HPLC-purity [3, 20] was 99.72% and the PXRD [3, 20] was “Heptahydrate”. The HPLC-purity ([4]; daylight study, Start) was 99.71%, the “change in HPLC purity in the presence of light (in words)” value [4, 22] was “a lot of decomposition products” and the “change in color in the presence of light (in words)” value [4, 22] was “significant formation of color”. The Aspect [4, 21] was “beige”, the “H2O (KFT)” value [4, 21] was 2.44% and the HPLC-purity [4, 21] was 95.83%.
